One assay concerns the target T1, rat GLP-1 receptor (Rattus norvegicus, UniProt P32301).
T1 construct: expressed in transfected cells; host or cells: BHK (baby hamster kidney fibroblast) cells, stably transfected
T1 sequence (P32301 22-463): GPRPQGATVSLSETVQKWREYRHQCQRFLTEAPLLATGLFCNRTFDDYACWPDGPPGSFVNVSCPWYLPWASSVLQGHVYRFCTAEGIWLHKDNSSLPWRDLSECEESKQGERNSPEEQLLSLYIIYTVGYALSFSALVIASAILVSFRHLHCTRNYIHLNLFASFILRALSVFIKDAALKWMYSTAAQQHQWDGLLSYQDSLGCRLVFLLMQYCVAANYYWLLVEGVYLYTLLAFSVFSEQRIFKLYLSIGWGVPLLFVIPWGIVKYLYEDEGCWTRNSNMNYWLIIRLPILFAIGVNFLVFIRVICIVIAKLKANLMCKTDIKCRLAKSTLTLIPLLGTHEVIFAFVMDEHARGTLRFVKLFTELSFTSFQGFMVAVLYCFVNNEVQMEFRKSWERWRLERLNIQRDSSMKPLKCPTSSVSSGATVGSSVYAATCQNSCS
Kind of assay: cAMP accumulation in BHK cells stably expressing the rat GLP-1 receptor (RIA). In kind it is cell-based. As to conditions: BHK-GLP-1R cells. A general note: cAMP levels reflect the balance of adenylyl cyclase and phosphodiesterase activity.

The target of another assay is T2, rat GLP-2 receptor (Rattus norvegicus, UniProt Q9Z0W0).
T2 construct: expressed in transfected cells; host or cells: BHK (baby hamster kidney fibroblast) cells, stably transfected
T2 sequence (Q9Z0W0 1-550): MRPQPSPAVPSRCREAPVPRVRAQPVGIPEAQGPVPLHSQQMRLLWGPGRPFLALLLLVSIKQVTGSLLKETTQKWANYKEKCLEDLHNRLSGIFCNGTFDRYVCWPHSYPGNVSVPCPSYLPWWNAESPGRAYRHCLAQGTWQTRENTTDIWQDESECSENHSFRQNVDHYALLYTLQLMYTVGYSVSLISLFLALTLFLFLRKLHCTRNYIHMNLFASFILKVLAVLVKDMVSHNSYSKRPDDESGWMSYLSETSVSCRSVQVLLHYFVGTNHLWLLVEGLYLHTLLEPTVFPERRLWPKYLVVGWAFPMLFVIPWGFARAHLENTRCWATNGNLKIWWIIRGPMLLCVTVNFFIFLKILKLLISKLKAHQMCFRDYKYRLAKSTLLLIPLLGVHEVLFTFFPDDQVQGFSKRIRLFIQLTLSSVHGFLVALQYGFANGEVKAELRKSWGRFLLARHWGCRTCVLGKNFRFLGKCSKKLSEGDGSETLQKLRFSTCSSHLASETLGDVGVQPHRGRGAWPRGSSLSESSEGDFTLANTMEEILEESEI
Kind of assay: cAMP accumulation in BHK cells stably expressing the rat GLP-2 receptor (RIA). In kind it is cell-based. As to conditions: BHK-GLP-2R cells. The procedure:
Peptides were diluted in DMEM containing 100 μM IBMX. The cAMP concentration in aliquots of ethanol extract was determined using a RIA and normalized to show cAMP/well. […] The concentration of peptide is plotted on a logarithmic scale. Error bars represent mean±SD.
GLP-2 receptors were propagated as previously described (42) and levels of intracellular cAMP were assayed following exposure to individual peptides in DMEM containing 100 μM IBMX (Sigma Chemical Co., St. Louis, Mo.) as reported (41,42). […] The treated cells were then incubated at 37° C. for 10 minutes. Absolute ethanol (−20° C.) was added to terminate the reaction and the plates were stored at −80° C. until the cell extracts were collected (2-4 hours later). Forskolin was used as a positive control. Cyclic adenosine monophosphate (cAMP) radioimmunoassays (Biomedical Technologies, Stoughton, Mass.) were performed on dried aliquots of extract and data was normalized to cAMP/well. All treatments were performed in triplicate or quadruplicate and the data is expressed as mean±SD. EC50 values were calculated using GraphPad Prism 3.00 (GraphPad Software Inc., San Diego, Calif.).

The next assay relates to adult male CD1 mice. The experiment in a line: Intracerebroventricular peptide injection and food intake in wildtype mice. The format is in vivo, mouse. As to conditions: for dark phase food intake: icv prior to dark phase; for dark phase food intake / food intake in fasted mice: h[Gly2]-GLP-2 50 ug, exendin-4 1 ug; for food intake in fasted mice: after 15 hour fast. The method, then: FIG. 1: h[Gly^2]-GLP-2 (also designated “440” in the Figure) inhibits dark phase food intake in mice. […] Following recovery, food intake was measured at 1, 2, and 4 hours (Hr) after injection. Values are expressed as mean±S.E.M., n=6 per group for (a) and n=8-20 for (b). (c) Groups of wildtype mice were administered either vehicle (PBS), h[Gly^2]-GLP-2 (50 ug dissolved in PBS), h[Gly^2]-GLP-2 and exendin (9-39) (50 ug of each peptide dissolved in PBS) or exendin (9-39) alone (50 ug dissolved in PBS) via icv injection. (f) Groups of wildtype mice were administered (icv) either vehicle (PBS), h[Gly^2]-GLP-2 alone (50 ug dissolved in PBS), or h[Gly^2]-GLP-2 (50 ug dissolved in PBS) and exendin (9-39) (0.05, 0.5 or 5 ug dissolved in PBS). (e) Groups of wildtype and GLP-1R−/− mice were injected icv with either vehicle (PBS) or h[Gly^2]-GLP-2 (50 ug dissolved in PBS) just prior to the start of dark phase and food intake was measured at 1, 2, and 4 hours. Data are expressed as mean±S.E.M., n=5-8 for all groups. Treatments at each time point for experiments shown in FIG. 1 were compared using a one way analysis of variance followed by an LSD multiple range test using SPSS for Windows version 5.0.1 (SPSS Inc., Chicago Ill.). *p<0.05 compared to controls (PBS), or to comparisons between groups indicated by connected lines.
For icv injections adult male CD1 mice randomized into multiple experimental groups were deeply anesthetized by inhalation of methoxyflurane (Metophane; Janssen, Toronto Ontario) (43). Following icv injections of equal volumes of saline or peptide dissolved in saline, animals were allowed to recover for ^˜15-20 minutes until the observation of a righting-response. Mice were then weighed, given a premeasured quantity of rodent chow and food intake was quantified at 1, 2, 4 and 22 hours. The accuracy of icv injection was verified at autopsy analysis by detection of bromophenol dye in the lateral ventricles of selected animals. Animals were injected with peptide at either 19:00 hours (for dark phase feeding studies) or at 10:00 hours following an overnight fast of 15 hours (for fasting studies).

The test system of the next assay is GLP-1R-/- mice. The experiment in a line: Intracerebroventricular peptide injection and food intake in GLP-1R-/- mice. In kind it is in vivo, mouse. As to conditions: icv 50 ug; dark phase; 0-1 hour and 2-4 hour time points. The procedure: FIG. 1: h[Gly^2]-GLP-2 (also designated “440” in the Figure) inhibits dark phase food intake in mice. […] Following recovery, food intake was measured at 1, 2, and 4 hours (Hr) after injection. Values are expressed as mean±S.E.M., n=6 per group for (a) and n=8-20 for (b). (c) Groups of wildtype mice were administered either vehicle (PBS), h[Gly^2]-GLP-2 (50 ug dissolved in PBS), h[Gly^2]-GLP-2 and exendin (9-39) (50 ug of each peptide dissolved in PBS) or exendin (9-39) alone (50 ug dissolved in PBS) via icv injection. (f) Groups of wildtype mice were administered (icv) either vehicle (PBS), h[Gly^2]-GLP-2 alone (50 ug dissolved in PBS), or h[Gly^2]-GLP-2 (50 ug dissolved in PBS) and exendin (9-39) (0.05, 0.5 or 5 ug dissolved in PBS). (e) Groups of wildtype and GLP-1R−/− mice were injected icv with either vehicle (PBS) or h[Gly^2]-GLP-2 (50 ug dissolved in PBS) just prior to the start of dark phase and food intake was measured at 1, 2, and 4 hours. Data are expressed as mean±S.E.M., n=5-8 for all groups. […]
For icv injections adult male CD1 mice randomized into multiple experimental groups were deeply anesthetized by inhalation of methoxyflurane (Metophane; Janssen, Toronto Ontario) (43). […] Mice were then weighed, given a premeasured quantity of rodent chow and food intake was quantified at 1, 2, 4 and 22 hours. […]

For a further assay, the system named is rats. As to conditions: cited from earlier work.
Assay [1] has as its system human subjects with short bowel syndrome. Conditions: 400 ug twice daily; cited from earlier work.

pEC50: −log10 of the molar value. Where no end group is shown, it is not given here.

Turning to `CC[C@H](C)[C@H](NC(=O)[C@H](Cc1ccccc1)NC(=O)[C@H](CC(=O)O)NC(=O)[C@H](CCCNC(=N)N)NC(=O)[C@H](C)NC(=O)[C@H](C)NC(=O)[C@H](CC(C)C)NC(=O)[C@H](CC(N)=O)NC(=O)[C@H](CC(=O)O)NC(=O)[C@H](CC(C)C)NC(=O)[C@@H](NC(=O)[C@@H](NC(=O)[C@H](CC(N)=O)NC(=O)[C@H](CCSC)NC(=O)[C@H](CCC(=O)O)NC(=O)[C@H](CC(=O)O)NC(=O)[C@H](CO)NC(=O)[C@H](Cc1ccccc1)NC(=O)[C@H](CO)NC(=O)CNC(=O)[C@H](CC(=O)O)NC(=O)CNC(=O)[C@@H](N)Cc1c[nH]cn1)[C@@H](C)O)[C@@H](C)CC)C(=O)N[C@@H](CC(N)=O)C(=O)N[C@@H](Cc1c[nH]c2ccccc12)C(=O)N[C@@H](CC(C)C)C(=O)N[C@H](C(=O)N[C@@H](CCC(N)=O)C(=O)N[C@H](C(=O)N[C@@H](CCCCN)C(=O)N[C@H](C(=O)N[C@H](C(=O)N[C@@H](CC(=O)O)C(=O)O)[C@@H](C)O)[C@@H](C)CC)[C@@H](C)O)[C@@H](C)CC` [h[Gly^2]-GLP-2], the “cAMP accumulation (agonist effect)” value on rat GLP-1 receptor is “no effect on cAMP accumulation”; on rat GLP-2 receptor, “increased cAMP accumulation in a dose-dependent manner”. The pEC50 (in general, the negative decadic logarithm of the EC50, by convention in mol/L) was 10.36 on rat GLP-2 receptor (0 nM Exendin (9-39) pre-treatment), 10.23 at rat GLP-2 receptor (in the presence of 50 nM Exendin (9-39)), 10.12 on rat GLP-2 receptor (in the presence of 500 nM Exendin (9-39)) and 10.09 at rat GLP-2 receptor (in the presence of 1000 nM Exendin (9-39)). Also, the “dark phase food intake” value with adult male CD1 mice was “significantly inhibited”. The “food intake in fasted mice” value with adult male CD1 mice (icv) was “not”. The “food intake in the first hour after injection, absence of exendin (9-39)” value in the assay with adult male CD1 mice (icv, dark phase, 50 ug) was “did not inhibit food intake”. Besides, the “duration of inhibitory effect on food intake” value in the assay with adult male CD1 mice (icv, data not shown) is “transient and not detectable after more than 4 hours”. For the same compound, the “inhibition of food intake with co-administered exendin (9-39)” value with adult male CD1 mice (icv, wildtype mice, 50 ug of each peptide, multiple time intervals including first hour) is listed as “significantly more pronounced”. Moreover, the “inhibition of food intake in GLP-1R-/- mice compared with +/+ control mice” value in the assay on GLP-1R-/- mice is given as “significantly greater sensitivity”.

exendin-4 [reference compound]: the “cAMP accumulation (agonist effect)” value on rat GLP-2 receptor is listed as “no cAMP accumulation was detected”. The “dark phase food intake” value with adult male CD1 mice is “significantly inhibited”. For the same compound, in the assay with adult male CD1 mice (icv), the “food intake in fasted mice” value was “inhibited food intake”. In the assay on adult male CD1 mice (icv, dark phase), the “inhibitory effect on dark phase food intake compared with h[Gly2]-GLP-2” value is “significantly more potent”.

With “glucagon-like peptide 2 (HADGSFSDEMNTILDNLAARDFINWLIQTKITD; also: acetate salt; UniProt P01275 146-178, looked up) [GLP-2, wild type glucagon-like peptide 2; literature results in rats (icv) and in humans as acetate salt]”, the “food intake in rats after icv infusion” value in the assay on rats (icv) is “inhibited food intake”. Also, the “therapeutic response in short bowel patients” value in assay [1] is given as “significant therapeutic response”.

On to “Rat GLP-1 (7-36)NH2 [reference compound]”, for which the “cAMP accumulation (agonist effect)” value on rat GLP-2 receptor is recorded as “no cAMP accumulation was detected”.

exendin (9-39) [reference compound]: in the assay with rat GLP-1 receptor, the “effect on GLP-1-stimulated cAMP accumulation (antagonism)” value is given as “decreased GLP-1-stimulated cAMP accumulation in a concentration-dependent manner”. Moreover, the “effect on the anorectic effects of GLP-2 in rats” value in the assay on rats is reported as “completely inhibited”. Further, the “effect on h[Gly2]-GLP-2-stimulated cAMP formation (antagonism)” value in the assay with rat GLP-2 receptor (exendin (9-39) 50-1000 nM) is “no effect”. In addition, in the assay on adult male CD1 mice (icv with h[Gly2]-GLP-2 50 ug, dark phase, 1-2 hour time point), the “amount sufficient for significant potentiation of anorectic effect of h[Gly2]-GLP-2” value amounted to 0.05 µg.

The values above are taken from patent US7862824B2, “Enhancement of GLP-2 activity of suppressing appetite” (1149336 Ontario, Inc., priority 2001, dated 2011).
